Holding throughout (assay): relative viability (nuclei count vs DMSO), 5 days (fraction); higher = more cells survive
Compound in the experiment “BAM7 + Trametinib”: CCOC1=CC=CC=C1N=NC2=C(NN(C2=O)C3=NC(=CS3)C4=CC=CC=C4)C [BAM7] + CC(=O)Nc1cccc(-n2c(=O)n(C3CC3)c(=O)c3c(Nc4ccc(I)cc4F)n(C)c(=O)c(C)c32)c1 [Trametinib] (partner 0.02 µM)
An outline of the steps:
(§1)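 Relative viability equals treated-well nuclei counts divided by vehicle-well nuclei counts. Counts came from 4× images of lung cancer cell lines grown in 1536-well plates for 5 days after pin-tool dosing on the day after seeding. Dosing used one drug alone or a fixed anchor-drug dose plus five library-drug doses (not always all listed) in √10 steps, and values are medians of duplicate plates.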

Compound in the experiment “BAM7 + Palbociclib”: CCOC1=CC=CC=C1N=NC2=C(NN(C2=O)C3=NC(=CS3)C4=CC=CC=C4)C [BAM7] + CC(=O)c1c(C)c2cnc(Nc3ccc(N4CCNCC4)cn3)nc2n(C2CCCC2)c1=O [Palbociclib] (partner 0.5 µM)
An outline of the steps:
as §1

Compound in the experiment “BAM7 + Navitoclax”: CCOC1=CC=CC=C1N=NC2=C(NN(C2=O)C3=NC(=CS3)C4=CC=CC=C4)C [BAM7] + CC1(C)CCC(c2ccc(Cl)cc2)=C(CN2CCN(c3ccc(C(=O)NS(=O)(=O)c4ccc(N[C@H](CCN5CCOCC5)CSc5ccccc5)c(S(=O)(=O)C(F)(F)F)c4)cc3)CC2)C1 [Navitoclax] (partner 0.5 µM)
An outline of the steps: as §1

Compound in the experiment “BAM7 + Linsitinib”: CCOC1=CC=CC=C1N=NC2=C(NN(C2=O)C3=NC(=CS3)C4=CC=CC=C4)C [BAM7] + C[C@]1(O)C[C@@H](c2nc(-c3ccc4ccc(-c5ccccc5)nc4c3)c3c(N)nccn32)C1 [Linsitinib] (partner 1 µM)
An outline of the steps:
as §1

Compound in the experiment “BAM7 + Dasatinib”: CCOC1=CC=CC=C1N=NC2=C(NN(C2=O)C3=NC(=CS3)C4=CC=CC=C4)C [BAM7] + Cc1nc(Nc2ncc(C(=O)Nc3c(C)cccc3Cl)s2)cc(N2CCN(CCO)CC2)n1 [Dasatinib] (partner 0.075 µM)
An outline of the steps: as §1

Consider NCI-H1355, for which the relative viability came out at 0.399 in the experiment with BAM7 + Trametinib (first compound 0.5 µM); 0.386 with BAM7 + Trametinib (first compound 5 µM); 0.317 in the experiment with BAM7 + Trametinib (first compound 15.81 µM); 0.457 with BAM7 + Trametinib (first compound 50 µM); 0.415 with BAM7 + Palbociclib (first compound 0.5 µM); 0.385 in the experiment with BAM7 + Palbociclib (first compound 5 µM). The relative viability turned out to be 0.377 with BAM7 + Palbociclib (first compound 15.81 µM); 0.416 in the experiment with BAM7 + Palbociclib (first compound 50 µM); 0.856 in the experiment with BAM7 + Navitoclax (first compound 0.5 µM); 0.94 in the experiment with BAM7 + Navitoclax (first compound 5 µM); 0.773 with BAM7 + Navitoclax (first compound 15.81 µM); 0.957 in the experiment with BAM7 + Navitoclax (first compound 50 µM). The relative viability came to 0.89 with BAM7 + Linsitinib (first compound 0.5 µM); 0.823 in the experiment with BAM7 + Linsitinib (first compound 5 µM); 0.729 with BAM7 + Linsitinib (first compound 15.81 µM); 0.792 with BAM7 + Linsitinib (first compound 50 µM); 0.572 in the experiment with BAM7 + Dasatinib (first compound 0.5 µM); 0.61 with BAM7 + Dasatinib (first compound 5 µM). Moreover, the figures for the relative viability with BAM7 + Dasatinib (first compound 15.81 µM) and in the experiment with BAM7 + Dasatinib (first compound 50 µM) were 0.46 and 0.549, respectively.

Turning to NCI-H1395, the relative viability with BAM7 + Trametinib (first compound 0.5 µM) came to 0.972; in the experiment with BAM7 + Trametinib (first compound 5 µM) it was 1.28; with BAM7 + Trametinib (first compound 15.81 µM) it was 0.946; in the experiment with BAM7 + Trametinib (first compound 50 µM), 1.06; with BAM7 + Palbociclib (first compound 0.5 µM) it was 0.578; with BAM7 + Palbociclib (first compound 5 µM), 0.627. Further, the relative viability in the experiment with BAM7 + Palbociclib (first compound 15.81 µM) is 0.606; in the experiment with BAM7 + Palbociclib (first compound 50 µM), 0.614; in the experiment with BAM7 + Navitoclax (first compound 0.5 µM), 1.15; with BAM7 + Navitoclax (first compound 5 µM), 1.14; in the experiment with BAM7 + Navitoclax (first compound 15.81 µM) it was 1.1; with BAM7 + Navitoclax (first compound 50 µM) it was 1.13. In addition, the relative viability amounted to 1.02 with BAM7 + Linsitinib (first compound 0.5 µM); 1.07 with BAM7 + Linsitinib (first compound 5 µM); 1.03 with BAM7 + Linsitinib (first compound 15.81 µM); 1.2 in the experiment with BAM7 + Linsitinib (first compound 50 µM); 0.41 with BAM7 + Dasatinib (first compound 0.5 µM); 0.445 with BAM7 + Dasatinib (first compound 5 µM). Besides, the values for the relative viability in the experiment with BAM7 + Dasatinib (first compound 15.81 µM) and in the experiment with BAM7 + Dasatinib (first compound 50 µM) were 0.357 and 0.465, respectively.

For the cell line NCI-H1437, the relative viability with BAM7 + Trametinib (first compound 0.5 µM) stood at 0.415; with BAM7 + Trametinib (first compound 5 µM) it was 0.396; with BAM7 + Trametinib (first compound 15.81 µM) it was 0.394; with BAM7 + Trametinib (first compound 50 µM), 0.414; with BAM7 + Palbociclib (first compound 0.5 µM), 0.318; in the experiment with BAM7 + Palbociclib (first compound 5 µM), 0.326. The relative viability with BAM7 + Palbociclib (first compound 15.81 µM) amounted to 0.306; with BAM7 + Palbociclib (first compound 50 µM), 0.326; with BAM7 + Navitoclax (first compound 0.5 µM) it was 1.18; with BAM7 + Navitoclax (first compound 5 µM), 1.07; with BAM7 + Navitoclax (first compound 15.81 µM) it was 0.964; with BAM7 + Navitoclax (first compound 50 µM), 1.03. Also, the relative viability with BAM7 + Linsitinib (first compound 0.5 µM) is 1.03; with BAM7 + Linsitinib (first compound 5 µM) it was 0.959; with BAM7 + Linsitinib (first compound 15.81 µM), 0.922; with BAM7 + Linsitinib (first compound 50 µM), 0.993; in the experiment with BAM7 + Dasatinib (first compound 0.5 µM), 0.561; in the experiment with BAM7 + Dasatinib (first compound 5 µM), 0.574. Moreover, the relative viability in the experiment with BAM7 + Dasatinib (first compound 15.81 µM) is 0.445; in the experiment with BAM7 + Dasatinib (first compound 50 µM), 0.833.

Consider NCI-H1651, for which the relative viability with BAM7 + Trametinib (first compound 0.5 µM) came out at 0.859; with BAM7 + Trametinib (first compound 5 µM), 0.842; in the experiment with BAM7 + Trametinib (first compound 15.81 µM) it was 0.835; in the experiment with BAM7 + Trametinib (first compound 50 µM) it was 0.862; in the experiment with BAM7 + Palbociclib (first compound 0.5 µM), 0.528; with BAM7 + Palbociclib (first compound 5 µM) it was 0.52. Moreover, the relative viability in the experiment with BAM7 + Palbociclib (first compound 15.81 µM) came out at 0.512; with BAM7 + Palbociclib (first compound 50 µM), 0.508; with BAM7 + Navitoclax (first compound 0.5 µM), 1.01; with BAM7 + Navitoclax (first compound 5 µM), 1.01; with BAM7 + Navitoclax (first compound 15.81 µM), 0.943; with BAM7 + Navitoclax (first compound 50 µM) it was 1.09. The relative viability in the experiment with BAM7 + Linsitinib (first compound 0.5 µM) was 1.05; with BAM7 + Linsitinib (first compound 5 µM) it was 1.09; with BAM7 + Linsitinib (first compound 15.81 µM), 1.01; with BAM7 + Linsitinib (first compound 50 µM), 1.02; with BAM7 + Dasatinib (first compound 0.5 µM), 0.297; in the experiment with BAM7 + Dasatinib (first compound 5 µM) it was 0.372. The relative viability with BAM7 + Dasatinib (first compound 15.81 µM) amounted to 0.477; in the experiment with BAM7 + Dasatinib (first compound 50 µM) it was 0.456.

As to NCI-H1666, the relative viability with BAM7 + Trametinib (first compound 0.5 µM) stood at 0.895; with BAM7 + Trametinib (first compound 5 µM) it was 0.879; in the experiment with BAM7 + Trametinib (first compound 15.81 µM), 0.887; in the experiment with BAM7 + Trametinib (first compound 50 µM), 0.837; in the experiment with BAM7 + Palbociclib (first compound 0.5 µM), 0.628; with BAM7 + Palbociclib (first compound 5 µM), 0.627. Also, the relative viability is 0.669 in the experiment with BAM7 + Palbociclib (first compound 15.81 µM); 0.677 in the experiment with BAM7 + Palbociclib (first compound 50 µM); 0.938 with BAM7 + Navitoclax (first compound 0.5 µM); 1.11 with BAM7 + Navitoclax (first compound 5 µM); 0.912 in the experiment with BAM7 + Navitoclax (first compound 15.81 µM); 0.858 with BAM7 + Navitoclax (first compound 50 µM). Also, the relative viability with BAM7 + Linsitinib (first compound 0.5 µM) is 0.835; with BAM7 + Linsitinib (first compound 5 µM), 0.867; with BAM7 + Linsitinib (first compound 15.81 µM) it was 0.734; with BAM7 + Linsitinib (first compound 50 µM) it was 0.854; with BAM7 + Dasatinib (first compound 0.5 µM), 0.847; with BAM7 + Dasatinib (first compound 5 µM), 0.832. The relative viability with BAM7 + Dasatinib (first compound 15.81 µM) is 0.755; with BAM7 + Dasatinib (first compound 50 µM) it was 0.876.

Regarding NCI-H1734, the relative viability with BAM7 + Trametinib (first compound 0.5 µM) came out at 0.766; with BAM7 + Trametinib (first compound 5 µM) it was 0.798; with BAM7 + Trametinib (first compound 15.81 µM), 0.667; with BAM7 + Trametinib (first compound 50 µM) it was 0.626; in the experiment with BAM7 + Palbociclib (first compound 0.5 µM), 0.38; with BAM7 + Palbociclib (first compound 5 µM) it was 0.332. Besides, the relative viability with BAM7 + Palbociclib (first compound 15.81 µM) worked out at 0.364; with BAM7 + Palbociclib (first compound 50 µM), 0.318; with BAM7 + Navitoclax (first compound 0.5 µM) it was 0.877; with BAM7 + Navitoclax (first compound 5 µM), 0.948; with BAM7 + Navitoclax (first compound 15.81 µM), 0.861; with BAM7 + Navitoclax (first compound 50 µM), 0.771. Besides, the relative viability in the experiment with BAM7 + Linsitinib (first compound 0.5 µM) worked out at 0.946; in the experiment with BAM7 + Linsitinib (first compound 5 µM), 1.07; in the experiment with BAM7 + Linsitinib (first compound 15.81 µM), 0.821; with BAM7 + Linsitinib (first compound 50 µM), 0.937; with BAM7 + Dasatinib (first compound 0.5 µM) it was 0.503; with BAM7 + Dasatinib (first compound 5 µM), 0.59. In addition, the relative viability with BAM7 + Dasatinib (first compound 15.81 µM) is 0.491; with BAM7 + Dasatinib (first compound 50 µM), 0.53.

As to NCI-H1755, the relative viability was 0.749 with BAM7 + Trametinib (first compound 0.5 µM); 0.805 with BAM7 + Trametinib (first compound 5 µM); 0.705 with BAM7 + Trametinib (first compound 15.81 µM); 0.779 in the experiment with BAM7 + Trametinib (first compound 50 µM); 0.462 with BAM7 + Palbociclib (first compound 0.5 µM); 0.466 in the experiment with BAM7 + Palbociclib (first compound 5 µM). The relative viability was determined as 0.439 with BAM7 + Palbociclib (first compound 15.81 µM); 0.436 with BAM7 + Palbociclib (first compound 50 µM); 1.04 with BAM7 + Navitoclax (first compound 0.5 µM); 1.04 with BAM7 + Navitoclax (first compound 5 µM); 0.886 in the experiment with BAM7 + Navitoclax (first compound 15.81 µM); 1.01 in the experiment with BAM7 + Navitoclax (first compound 50 µM). Moreover, the relative viability is 1.01 with BAM7 + Linsitinib (first compound 0.5 µM); 1.06 with BAM7 + Linsitinib (first compound 5 µM); 1.02 in the experiment with BAM7 + Linsitinib (first compound 15.81 µM); 0.978 with BAM7 + Linsitinib (first compound 50 µM); 0.432 with BAM7 + Dasatinib (first compound 0.5 µM); 0.466 with BAM7 + Dasatinib (first compound 5 µM). Moreover, the relative viability with BAM7 + Dasatinib (first compound 15.81 µM) came out at 0.419; with BAM7 + Dasatinib (first compound 50 µM) it was 0.458.
